# Experimental data published in US20170035708A1, “USE OF N-(4-TERT-BUTYLBENZYL)-3-CHLORO-N-[2-(4-CHLORO-3-ETHYL-PHENYL)-ETHYL]-2-FLUORO-5-TRIFLUOROMETHYL-BENZAMIDE FOR THE TREATMENT OF EYE DISEASES” (Hoffmann-La Roche Inc., priority 2013, published 2017).
# How the values were obtained:
# [1] = tested on: 50 pharmacologically relevant receptors; assay: Binding screen on 50 pharmacologically relevant receptors; details: concentration of 10 μM
# [2] = biological target: T1, CETP activity (Macaca fascicularis, UniProt P47896); assay: In vivo inhibition of CETP activity in cynomolgus monkeys
# T1 construct: from tissue; host or cells: cynomolgus monkey, in vivo (endogenous circulating CETP)
# T1 sequence (P47896 18-493): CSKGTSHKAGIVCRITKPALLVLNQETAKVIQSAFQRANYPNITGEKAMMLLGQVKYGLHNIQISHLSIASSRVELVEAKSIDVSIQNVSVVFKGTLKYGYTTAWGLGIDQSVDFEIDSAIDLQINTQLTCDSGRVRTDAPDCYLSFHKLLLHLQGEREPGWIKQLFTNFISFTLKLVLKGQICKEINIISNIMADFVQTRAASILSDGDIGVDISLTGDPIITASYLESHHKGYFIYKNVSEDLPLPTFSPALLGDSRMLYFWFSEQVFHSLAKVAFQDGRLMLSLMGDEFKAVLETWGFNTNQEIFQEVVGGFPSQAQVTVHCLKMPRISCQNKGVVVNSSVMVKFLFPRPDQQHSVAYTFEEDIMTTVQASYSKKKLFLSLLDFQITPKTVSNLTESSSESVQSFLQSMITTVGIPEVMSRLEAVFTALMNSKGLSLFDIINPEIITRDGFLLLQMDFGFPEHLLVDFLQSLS
# [3] = Pharmacokinetic properties and excretion in the cynomolgus monkey; format: in vivo
# Method: (§1) The pharmacokinetic (PK) properties of N-(4-tert-Butyl-benzyl)-3-chloro-N-[2-(4-chloro-3-ethyl-phenyl)-ethyl]-2-fluoro-5-trifluoromethyl-benz-amide were assessed in the rat and cynomolgus monkey. […] The very high protein binding, in combination with moderate membrane permeability, is the likely cause for the low volume of distribution observed in vivo.
# In the rat and cynomolgus monkey, the major excretion route was the bile and feces, independent of the route of administration (approximately 92% of administered dose eliminated). Less than 1% of the dose was eliminated renally.
# [4] = tested on: plasma protein; assay: In vitro plasma protein binding; format: in vitro ADME
# Method: as §1
# [5] = Membrane permeability; format: in vitro ADME
# Method: as §1
# [6] = Physicochemical properties (solubility, stability, lipophilicity)
# From the text: (§2) N-(4-tert-Butyl-benzyl)-3-chloro-N-[2-(4-chloro-3-ethyl-phenyl)-ethyl]-2-fluoro-5-trifluoromethyl-benz-amide is a potent inhibitor of cholesteryl ester transfer protein (CETP), which was originally developed for the treatment of dyslipidemia and prevention of cardiovascular events. The clinical development was discontinued in 2009 due to strategic portfolio decision; the discontinuation was not due to the safety profile of the product. […] Liquid-filled hard capsules in the dose strength of 60 mg have been developed.
# as §1
# [7] = Clinical pharmacokinetics, SAD/MAD study and food effect; format: in vivo, human
# Method: Two clinical studies have been completed with N-(4-tert-Butyl-benzyl)-3-chloro-N-[2-(4-chloro-3-ethyl-phenyl)-ethyl]-2-fluoro-5-trifluoromethyl-benz-amide in male healthy subject and male mildly dyslipidemic subjects.
# Following oral administration of N-(4-tert-Butyl-benzyl)-3-chloro-N-[2-(4-chloro-3-ethyl-phenyl)-ethyl]-2-fluoro-5-trifluoromethyl-benz-amide at single ascending doses (SAD) and multiple ascending doses (MAD) in a first clinical study, a lag time (Tlag) of 0.5 hour was observed, and Cmax was achieved on average at 3 hours post-dose.
# Food increased the oral bioavailability of N-(4-tert-Butyl-benzyl)-3-chloro-N-[2-(4-chloro-3-ethyl-phenyl)-ethyl]-2-fluoro-5-trifluoromethyl-benz-amide. A standard breakfast increased exposure in terms of AUC and Cmax by approximately 4- to 6-fold, compared with the fasted state and depending on the formulation used.
# [8] = biological target: T2, plasma CETP activity (Homo sapiens, UniProt P11597); assay: Plasma CETP activity and CETP mass in combined SAD/MAD clinical study; format: in vivo
# T2 construct: from tissue; host or cells: plasma of study subjects
# T2 sequence (P11597 18-493): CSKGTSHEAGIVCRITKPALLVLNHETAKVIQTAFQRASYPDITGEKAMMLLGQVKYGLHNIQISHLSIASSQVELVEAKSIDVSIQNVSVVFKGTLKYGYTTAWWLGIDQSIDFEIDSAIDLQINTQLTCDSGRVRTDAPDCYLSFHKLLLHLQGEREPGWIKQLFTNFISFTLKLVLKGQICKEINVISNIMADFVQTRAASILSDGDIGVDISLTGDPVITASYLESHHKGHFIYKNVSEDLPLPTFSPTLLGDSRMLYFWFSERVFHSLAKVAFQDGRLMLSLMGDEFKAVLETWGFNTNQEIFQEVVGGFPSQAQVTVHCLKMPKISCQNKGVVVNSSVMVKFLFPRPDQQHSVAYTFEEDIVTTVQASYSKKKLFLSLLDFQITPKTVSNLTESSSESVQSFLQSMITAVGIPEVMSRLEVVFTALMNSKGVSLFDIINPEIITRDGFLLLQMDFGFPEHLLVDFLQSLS
# Method: The main difference between the different doses was the duration of the inhibition, which was sustained for 24 hours with the two highest tested multiple dose levels (180 mg and 420 mg). […] After multiple doses of N-(4-tert-Butyl-benzyl)-3-chloro-N-[2-(4-chloro-3-ethyl-phenyl)-ethyl]-2-fluoro-5-trifluoromethyl-benz-amide for 14 days, a similar trend in CETP inhibition was observed.
# [9] = tested on: scavenger receptor SRB1; assay: Cholesterol efflux from cells; format: cell-based; details: via scavenger receptor SRB1
# From the text: as §2
compound,measurement,setting,value
"CCc1cc(CCN(Cc2ccc(C(C)(C)C)cc2)C(=O)c2cc(C(F)(F)F)cc(Cl)c2F)ccc1Cl [Compound 1, N-(4-tert-Butyl-benzyl)-3-chloro-N-[2-(4-chloro-3-ethyl-phenyl)-ethyl]-2-fluoro-5-trifluoromethyl-benzamide]",binding to 50 pharmacologically relevant receptors,[1],no significant binding
same,inhibition of CETP activity in vivo,[2],inhibition of CETP activity has been demonstrated
same,absolute oral bioavailability,[3],relatively low
same,dose eliminated renally,[3],Less than 1%
same,gastrointestinal absorption,[3],limited
same,terminal half-life,[3],medium to long
same,total systemic clearance,[3],low
same,volume of distribution,[3],low
same,plasma protein binding,[3]; across species,very high
same,administered dose eliminated via bile and feces,[3]; independent of the route of administration,approximately 92%
same,plasma protein binding in vitro,[4],extremely high and concentration-independent
same,membrane permeability,[5],moderate
same,lipophilicity,[6],highly lipophilic
same,solubility in aqueous media,[6]; aqueous media,practically insoluble
same,dissolution rate,[6]; as cause of limited absorption,low
same,solubility,[6]; as cause of limited absorption,low
same,solubility in common organic solvents,[6]; common organic solvents,soluble
same,stability of the powder,[6]; white to off-white powder,stable
same,accumulation ratio for AUC0-24h,"[7]; 420 mg once daily, Day 14 to Day 1",1.4
same,accumulation with once-daily regimen,[7]; across doses except the highest dose (420 mg),No accumulation was apparent
same,half-life,"[7]; male, human, in vivo, oral, after multiple doses above 10 mg, read-out: mean terminal half-life",900 to 2100 min
same,dose up to which AUC0-24h and Cmax increased dose-proportionally,[7]; multiple doses (part 2 MAD),≤ 180 mg
same,lag time (Tlag),"[7]; oral, SAD and MAD, first clinical study",0.5 h
same,dose up to which AUC0-24h and Cmax increased dose-proportionally,[7]; single doses (part 1 SAD),≤ 360 mg
same,CETP mass,[8]; after multiple doses,dose-dependent and time-dependent increase
same,inhibition of plasma CETP activity,"[8]; first measurement, 2 hours post-dose, Day 1, all doses, healthy and mildly dyslipidemic subjects",Complete CETP inhibition
same,duration of the CETP inhibition,[8]; two highest multiple dose levels (180 mg and 420 mg),24 h
same,cholesterol efflux from cells,[9],efflux cholesterol from cells via scavenger receptor SRB1
